Key:
[1] = test system: HIV-1_89.6 passage 14 viral population (Y99H and A128T); assay: Susceptibility of STP0404-selected viral population, passage 14, in CEMx174 cells; type: cell-based; conditions: passage 14 viral population (Y99H and A128T) vs wild type HIV-1_89.6
Description: CEM x174 cells infected with HIV primary isolate 89.6 were cultured in the presence of STP0404 at the concentration of IC90 determined earlier. At each passage, cells from original culture in the presence of inhibitor (0.75x10^6 cells) were mixed with equal amount of no-drug control cells to propagate, and viral replication was monitored by the production of p24 antigen in the supernatant. […] The population of drug-induced mutations at each passage mentioned above was determined by sequencing of at least 10 resulting transformants.
CEM x174 cells were infected with cell-free viral supernatant collected during virus resistance assays above. […] The viral stocks were normalized by the amount of p24 capsid antigen, determined to infect CEMx174 cells at approximately 10% of populations (10,000 pg / 10^6 cells). […] Cell-free supernatants were measured for p24 antigen production 5 days post-infection. p89.6 plasmid was applied for Quickchange kit (Invitrogen) to create Y99H single, A128T single, Y99H/A128T double mutants as well as two natural variants (A124N and T125A), and these 89.6 variant viruses were generated by transfecting 293T cells and culturing the produced viruses in CEMx174 cells. The IC50 of STP0404 against respective viruses were analyzed using GraphPad Prism (Version 9) and presented as means ± S.D. of triplicates. […]

[2] = Plasma stability determination; type: in vitro ADME, human, monkey, dog, rat and mouse; conditions: all tested species; 5 μM, 60 mins, remaining percentage
Description: STP0404 was incubated with human, monkey, dog, rat and mouse plasma. These incubations were carried out at a test concentration of 5 μM with an incubation period of 60 mins. Samples of human, monkey, dog, rat and mouse were taken at 0, 15, 30, 45, 60 mins. And stop the reaction by taking 50 μL aliquots to 400 μL acetonitrile with internal standard. Propantheline was used as positive control for human, monkey and mouse plasma and mevinolin as the positive control for dog and rat plasma. The remaining percentage was tested. This test was conducted by a fee to service through Pharmaron (Beijing, China).

IN-LEDGF/p75 binding = IN-LEDGF/p75 binding (Human immunodeficiency virus type 1 group M subtype B, UniProt P12497); assay: HTRF-based inhibition assay for LEDGF/p75 binding to IN; type: biochemical, HIV-1
Description: We examined the ability of STP0404 to inhibit IN binding to LEDGF/p75 using another HTRF-based assay. Briefly, 10 nM His-tagged IN was pre-incubated in a binding buffer (150 mm NaCl, 2 mm MgCl2, 0.1% Nonidet P-40, 1 mg/ml BSA, 25 mm Tris, pH 7.4) with the compound for 30 min at room temperature, and then 10 nM FLAG-tagged LEDGF/p75 was added to the reaction. This was followed by addition of 6.6 nM anti-His6-XL665 and 0.45 nM anti-FLAG-EuCryptate antibodies (Cisbio, Inc., Bedford, MA).

CYP3A and PXR = assay: PXR induction in DPX2 cells; type: in vitro ADME
Description: STP0404 to activate PXR, and thereby to induce CYP3A4 expression in DPX2 cell lines following in vitro administration. […] After 48 hrs incubation, the cell viability was assessed fluorimetrically via CellTiter-FluorTM. CYP3A-mediated metabolism and PXR activation are measured using luminescence with Luciferin-IPA and ONE-GloTM, respectively. The light intensity is directly proportional to the extent of PXR activation and accompanying gene transcription in the DPX2 cells (Wuxi AppTec, China).

[3] = Safety pharmacology: effects on the respiratory system in rats; type: in vivo; conditions: single oral 100, 300 and 600 mg/kg
Description: (§1) Effects on the Respiratory System in Rats (Study no. YL18404). Four groups of eight male rats were given a single oral administration of STP0404 at doses of 100, 300 and 600 mg/kg. STP0404 was administered as a suspension in 0.5% MC in a volume of 10 mL/kg. […] Measurements were conducted at pre-dosing and 0.5, 1, 3, 6 12 and 24 hrs post-dosing, and respiratory rate, tidal volume and minute volume were investigated (INA Research, Japan). Effects on the Central Nervous System in Rats (Study no. YL18405). Four groups of six male rats were given a single oral administration of STP0404 at doses of 0 (vehicle), 100, 300 and 600 mg/kg. The test article was administered as a suspension in 0.5% MC in a volume of 10 mL/kg. […] Blinded observations were conducted pre-dosing and 0.5, 1, 3, 6, 12 and 24 hrs post-dosing on rats body temperature, pupil size, landing foot-splay and grip strength in functional observational battery. Effects on the Cardiovascular System in Dogs (Study no. YL18406). STP0404 at dose levels of 30, 60 and 90 mg/kg were administered orally (by capsules) to four male Beagle dogs in a design with 7-day intervals between doses. Heart rate, blood pressure (systolic, diastolic and mean) and electrocardiographic (ECG) parameters (PR, QT and QTc intervals and QRS duration) were evaluated at pre-dosing and 0.5, 1, 2, 4, 8 and 24 hrs post-dosing. […]

full-length IN = target: T1, full-length IN (Human immunodeficiency virus type 1 group M subtype B, UniProt P12497); assay: HTRF-based IN multimerization assay; type: biochemical, HIV-1
T1 construct: between two full-length IN protein populations differentially labeled
Description: To test the ability of STP0404 to induce higher-order multimerization of IN we employed homogeneous time-resolved fluorescence (HTRF)-based assay. Briefly, His-tagged and FLAG-tagged INs (each at 10 nM final concentration) were mixed in buffer containing 25 mM Tris, pH 7.4, 150 mM NaCl, 2 mM MgCl2, 0.1% Nonidet P-40 and 1 mg/ml BSA. This mixture was incubated with various concentrations of the test compounds for 3 hrs at room temperature. The detection is based on anti-His6-XL665 and anti-FLAG-EuCryptate antibodies (Cisbio, Inc., Bedford, MA) which were added to the reaction and incubated at room temperature for 3 hrs. The HTRF signal was recorded by PerkinElmer EnSpire multimode plate reader and OriginLab software was used to calculate the EC50 values.

[4] = Safety pharmacology: effects on the cardiovascular system in dogs; type: in vivo; conditions: oral 30, 60 and 90 mg/kg
Description: as §1

Q: For `Cc1nc2c(c(C)c(C)n2Cc2cnn(C)c2)c(-c2ccc(Cl)cc2)c1[C@H](OC(C)(C)C)C(=O)O` [STP0404], which IC50 fold increase [1] is on record?
A: The IC50 fold increase was 61.4 fold.

Q: What about the plasma stability [2] of the same compound?
A: The plasma stability was ~100%.

Q: What about the IC50 (IN-LEDGF/p75 binding) of the same compound?
A: The IC50 was 0.19 ± 0.07 µM.

Q: What about the “EC50 to activate drug metabolizing factors (in words)” value (CYP3A and PXR) of the same compound?
A: The value was “comparatively high concentrations”.

Q: What about the “safety pharmacology concerns, respiratory system” value [3] of the same compound?
A: The value was “did not induce any safety pharmacology concerns”.

Q: What about the EC50 (full-length IN) of the same compound?
A: Its EC50 is 0.147 ± 0.02 µM.

Q: What about the “safety pharmacology concerns, cardiovascular system” value [4] of the same compound?
A: The value was “did not induce any safety pharmacology concerns”.
